Assay results from patent publication US20240132473A1, “SULFOXIMIDE SUBSTITUTED INDAZOLE IRAK4 KINASE INHIBITOR, PREPARATION METHOD THEREOF AND USE THEREOF” (Shanghai Xunhe Pharmaceutical Technology Co. Ltd., priority 2021, published 2024).

Tests used:
[1] = Pharmacokinetic test in SD rats, single intragastric administration; details: rat, po; for Cmax / AUC(0-t) / Tmax: 25 mg/kg; for half-life: SD
Description: SD rats were used as the test animals.
Standard curve and preparation and processing of quality control samples:
Stock solution was diluted with 50% acetonitrile-water to obtain standard working solutions of 0.04, 0.10, 0.20, 0.40, 1.00, 2.00, 4.00 μg/mL, and quality control working solutions of 0.10, 1.00, 3.00 μg/mL. […] 200 μL of acetonitrile (containing 5 ng/mL of the internal standard loratadine) was added. After the vortex oscillation for 3 minutes, the solutions were centrifuged at 15000 rpm at 4° C. for 15 minutes. 100 μL of the supernatant was taken for LC-MS/MS analysis. WinNonlin ® 8.0 was used to calculate the experimental results.

IRAK4 kinase = IRAK4 kinase (Homo sapiens (Human), UniProt Q9NWZ3); experiment: IRAK4 kinase inhibitory activity assay (mobility shift assay, Km ATP); format: biochemical; details: MSA, ATP 37 μM (Km ATP)
Description: The inhibitory activity (IC50) of the compound on IRAK4 kinase under Km ATP was detected by mobility shift assay (MSA). Ten drug concentration gradients were set (initial concentration 1 μM, 3-fold dilution, 2 duplicate wells per concentration). […] After incubation at 28° C. for a period of time, 10 μL of termination buffer was added to terminate the reaction. The conversion rate data was read with Caliper, and then the conversion rate was converted into inhibition rate data. According to the inhibition rate data of each concentration, the IC50 of half inhibitory concentration was calculated by Logit method (Table 3).

in vivo = details: ICR, mouse, po
Description: On the day of administration, observations were made approximately 0.5, 1, 2, 4, and 6 hours after the first administration. During day 2 to day 6 of the observation period, observations were made twice a day, once in the morning and once in the afternoon.
Observations included but not limited to: general conditions, behavioral activities, gait and posture, eyes, mouth, nose, gastrointestinal tract, skin hair and urogenital tract.
Weight data were expressed as mean ±standard deviation. Levene's test and one-way analysis of variance were used for comparison between groups. If there was a difference, Dunnet t test was then used.
The maximum tolerated dose refers to the dose administered when the animal was dying.

hERG potassium channel = hERG potassium channel (Homo sapiens (Human), UniProt Q12809); experiment: cell-based; details: for Inhibition rate (%) of hERG current: human
Source text: The rapid activation of delayed rectifier outward potassium current (IKr) in humans is mainly mediated by hERG ion channel and participates in human myocardial cell repolarization. Drug blockade of this current will lead to the appearance of QT interval prolongation syndrome in clinical practice, which can easily induce acute arrhythmia and even sudden death.

[2] = tested on: TNF-α secretion in THP-1 cells; experiment: Inhibition of LPS-stimulated TNF-α secretion in THP-1 cells (ELISA); format: cell-based; details: Homo sapiens, LPS 1 μg/mL, 4.5 hours
Description: TNF-α is a key cytokine involved in the inflammatory process of the listed autoimmune disease, such as rheumatoid arthritis, psoriatic arthritis, ankylosing spondylitis, psoriasis, Crohn's disease, ulcerative colitis, etc. In this test, TNF-α secretion was triggered by incubation with bacterial lipopolysaccharides (LPS). […] The 96-well plate was rotated at 2000 rpm for 5 minutes, and then 50 μL of supernatant was taken. The content of TNF-α in the supernatant was determined by human ELISA kit, and IC50 value of the compound was calculated by XL-Fit (table 4).

hERG potassium channel, sequence (Q12809 whole entry): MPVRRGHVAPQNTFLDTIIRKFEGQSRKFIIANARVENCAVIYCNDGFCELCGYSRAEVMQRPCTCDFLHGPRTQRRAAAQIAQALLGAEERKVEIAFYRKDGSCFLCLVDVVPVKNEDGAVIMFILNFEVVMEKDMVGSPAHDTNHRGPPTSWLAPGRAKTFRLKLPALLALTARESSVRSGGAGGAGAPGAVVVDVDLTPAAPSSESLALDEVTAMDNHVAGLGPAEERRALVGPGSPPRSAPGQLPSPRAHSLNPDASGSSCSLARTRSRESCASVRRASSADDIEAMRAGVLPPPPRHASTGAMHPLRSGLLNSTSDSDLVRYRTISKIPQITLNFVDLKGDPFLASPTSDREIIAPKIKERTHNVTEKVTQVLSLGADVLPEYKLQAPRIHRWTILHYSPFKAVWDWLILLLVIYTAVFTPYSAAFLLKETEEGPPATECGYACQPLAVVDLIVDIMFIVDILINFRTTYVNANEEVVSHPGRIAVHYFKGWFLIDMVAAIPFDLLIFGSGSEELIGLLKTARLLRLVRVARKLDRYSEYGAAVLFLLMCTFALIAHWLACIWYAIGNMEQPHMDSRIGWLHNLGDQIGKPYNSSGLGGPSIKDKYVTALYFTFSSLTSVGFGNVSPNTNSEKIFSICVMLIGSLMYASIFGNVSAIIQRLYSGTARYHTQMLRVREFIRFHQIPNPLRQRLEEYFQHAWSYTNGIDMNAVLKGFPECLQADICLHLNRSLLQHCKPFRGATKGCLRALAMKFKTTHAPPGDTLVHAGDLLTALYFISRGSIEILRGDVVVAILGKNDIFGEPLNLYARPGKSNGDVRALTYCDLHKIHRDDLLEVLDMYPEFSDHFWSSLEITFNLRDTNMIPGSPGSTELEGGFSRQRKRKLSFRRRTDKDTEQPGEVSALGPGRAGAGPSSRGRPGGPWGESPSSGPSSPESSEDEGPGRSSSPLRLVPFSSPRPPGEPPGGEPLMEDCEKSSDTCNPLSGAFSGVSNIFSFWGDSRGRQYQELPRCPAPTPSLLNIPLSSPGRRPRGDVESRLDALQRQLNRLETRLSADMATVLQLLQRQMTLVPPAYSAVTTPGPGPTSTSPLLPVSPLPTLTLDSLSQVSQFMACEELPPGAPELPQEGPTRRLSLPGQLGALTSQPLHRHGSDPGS
IRAK4 kinase, sequence (Q9NWZ3 whole entry): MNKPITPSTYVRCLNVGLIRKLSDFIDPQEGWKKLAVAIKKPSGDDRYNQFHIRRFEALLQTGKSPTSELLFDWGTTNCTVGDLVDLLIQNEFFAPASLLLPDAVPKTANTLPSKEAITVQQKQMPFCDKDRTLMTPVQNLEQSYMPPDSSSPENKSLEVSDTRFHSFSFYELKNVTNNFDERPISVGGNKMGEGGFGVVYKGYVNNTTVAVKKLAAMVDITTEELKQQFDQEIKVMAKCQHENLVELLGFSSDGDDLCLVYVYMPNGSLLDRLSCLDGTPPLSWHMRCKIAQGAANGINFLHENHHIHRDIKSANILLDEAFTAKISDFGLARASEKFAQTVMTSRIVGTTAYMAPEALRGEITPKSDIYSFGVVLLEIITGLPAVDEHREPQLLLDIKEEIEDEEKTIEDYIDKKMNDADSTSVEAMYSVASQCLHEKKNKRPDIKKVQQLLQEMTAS

| SMILES | IC50 (IRAK4 kinase) | IC50 [2] | half-life ([1]; in vivo) | AUC(0-t) ([1]; plasma) | Cmax ([1]; plasma) | Tmax ([1]; plasma) | also measured |
| --- | --- | --- | --- | --- | --- | --- | --- |
| CC(C)(O)CCn1cc2cc(NC(=O)c3cccc(C(F)(F)F)n3)c(C(C)(C)O)cc2n1 [BAY-1830839, reference compound] |  |  |  |  |  |  | Cmax ([1]; in vivo): 0.223 µg/mL |
| CC(C)(O)c1cc2nn(CCS(C)(=O)=O)cc2cc1NC(=O)c1cccc(C(F)(F)F)n1 [BAY-1834845, reference compound] |  |  |  |  |  |  | Cmax ([1]; in vivo): 0.201 µg/mL |
| COc1cc2nn(CCS(=N)(=O)c3ccccc3)cc2cc1NC(=O)c1cccc(C(F)(F)F)n1 (stereo not drawn) [Compound I-1] | 0.3 nM | 0.5 nM | 5 h | 8.33 µg·h/mL | 1.6 µg/mL | 6.2 h | MTD at 6 days (in vivo): > 2000 mg/kg; Inhibition rate (%) of hERG current (hERG potassium channel; 5 μM): -1.0%; Inhibition rate (%) of hERG current (hERG potassium channel; 50 μM): 2.3%; Inhibition rate (%) of hERG current (hERG potassium channel; 500 μM): 15.6% |
| CC(C)(O)c1cc2nn(CCS(=N)(=O)c3ccccc3)cc2cc1NC(=O)c1cccc(C(F)(F)F)n1 (stereo not drawn) [Compound I-2] | 0.5 nM | 0.3 nM | 5.5 h | 8.1 µg·h/mL | 1.58 µg/mL | 6.5 h | MTD at 6 days (in vivo): > 2000 mg/kg; Inhibition rate (%) of hERG current (hERG potassium channel; 5 μM): -0.5%; Inhibition rate (%) of hERG current (hERG potassium channel; 50 μM): 0.7%; Inhibition rate (%) of hERG current (hERG potassium channel; 500 μM): 12.3% |
| N=S(=O)(CCn1cc2cc(NC(=O)c3cccc(C(F)(F)F)n3)c(N3CCC(O)C3)cc2n1)c1ccccc1 (stereo not drawn) [Compound I-4] | 0.3 nM | 1.3 nM | 4.7 h | 8.53 µg·h/mL | 1.5 µg/mL | 6 h |  |
| COc1cc2nn(CCS(=N)(=O)c3ccncc3)cc2cc1NC(=O)c1cccc(C(F)(F)F)n1 (stereo not drawn) [Compound I-5] | 0.4 nM | 0.7 nM | 5.1 h | 8.28 µg·h/mL | 1.4 µg/mL | 6.2 h | MTD at 6 days (in vivo): > 2000 mg/kg; Inhibition rate (%) of hERG current (hERG potassium channel; 5 μM): 0.0%; Inhibition rate (%) of hERG current (hERG potassium channel; 50 μM): -1.0%; Inhibition rate (%) of hERG current (hERG potassium channel; 500 μM): 13.4% |
| N=S(=O)(CCn1cc2cc(NC(=O)c3cccc(C(F)(F)F)n3)c(N3CCOCC3)cc2n1)c1ccncc1 (stereo not drawn) [Compound I-7] | 0.5 nM | 1.2 nM | 5 h | 8.63 µg·h/mL | 1.51 µg/mL | 5 h | MTD at 6 days (in vivo): > 2000 mg/kg |
| COc1cc2nn(CCS(=N)(=O)c3ccnc4ccccc34)cc2cc1NC(=O)c1cccc(C(F)(F)F)n1 (stereo not drawn) [Compound I-9] | 0.2 nM | 1 nM | 4.8 h | 8.52 µg·h/mL | 1.42 µg/mL | 5.5 h |  |
| Cc1cc2nn(CCS(=N)(=O)c3ccccc3)cc2cc1NC(=O)c1cccc(C(F)(F)F)n1 (stereo not drawn) [Compound I-13] | 0.4 nM | 1.1 nM |  |  |  |  |  |
| Cc1cc(-c2nc(C(=O)Nc3cc4cn(CCS(=N)(=O)c5ccncc5)nc4cc3C(C)(C)O)co2)ccn1 (stereo not drawn) [Compound I-16] | 0.5 nM | 0.9 nM | 6.3 h | 9.23 µg·h/mL | 1.36 µg/mL | 6 h | MTD at 6 days (in vivo): > 2000 mg/kg |
| Cc1cc(-c2nc(C(=O)Nc3cc4cn(CCS(=N)(=O)c5ccncc5)nc4cc3N3CCOCC3)co2)ccn1 (stereo not drawn) [Compound I-17] | 0.5 nM | 1.2 nM | 5.4 h | 8.2 µg·h/mL | 1.43 µg/mL | 5.8 h |  |
| Cc1cc(-c2nc(C(=O)Nc3cc4cn(CCS(=N)(=O)c5ccncc5)nc4cc3N3CCC(O)C3)co2)ccn1 (stereo not drawn) [Compound I-18] | 0.4 nM | 1.4 nM |  |  |  |  |  |
| Cc1cc(-c2nc(C(=O)Nc3cc4cn(CCS(=N)(=O)c5ccccn5)nc4cc3N3CCC(O)C3)co2)ccn1 (stereo not drawn) [Compound I-20] | 0.6 nM | 1.1 nM | 4.5 h | 7.5 µg·h/mL | 1.4 µg/mL | 4.9 h |  |
| N=S(=O)(CCn1cc2cc(NC(=O)c3cnn4cccnc34)c(N3CCOCC3)cc2n1)c1ccnc2ccccc12 (stereo not drawn) [Compound I-23] | 0.4 nM | 1.1 nM |  |  |  |  |  |
| N=S(=O)(CCn1cc2cc(NC(=O)c3cnn4cccnc34)c(N3CCC(O)C3)cc2n1)c1ccccn1 (stereo not drawn) [Compound I-24] | 0.8 nM | 0.8 nM | 5.5 h | 8.9 µg·h/mL | 1.42 µg/mL | 6.2 h | MTD at 6 days (in vivo): > 2000 mg/kg |
| CN=S(=O)(CCn1cc2cc(NC(=O)c3cccc(C(F)(F)F)n3)c(OC)cc2n1)c1ccccc1 (stereo not drawn) [Compound I-25] | 0.5 nM | 1.2 nM |  |  |  |  |  |
| COc1cc2nn(CCS(=N)(=O)c3ccc(F)cc3)cc2cc1NC(=O)c1cccc(C(F)(F)F)n1 (stereo not drawn) [Compound I-27] | 0.7 nM | 1.3 nM |  |  |  |  |  |
| Cc1cc(-c2nc(C(=O)Nc3cc4cn(CCS(=N)(=O)c5ccccc5)nc4cc3N3CCOCC3)co2)ccn1 (stereo not drawn) [Compound I-30] | 0.6 nM | 0.9 nM |  |  |  |  |  |
| Cc1cc(-c2nc(C(=O)Nc3cc4cn(CCS(=N)(=O)c5ncccn5)nc4cc3C(C)(C)O)co2)ccn1 (stereo not drawn) [Compound I-32] | 0.5 nM | 1 nM |  |  |  |  |  |
| N=S(=O)(CCn1cc2cc(NC(=O)c3cnn4cccnc34)c(N3CCOCC3)cc2n1)c1ncccn1 (stereo not drawn) [Compound I-33] | 0.4 nM | 1.4 nM |  |  |  |  |  |
| COc1cc2nn(CCS(=N)(=O)c3ncco3)cc2cc1NC(=O)c1cccc(C(F)(F)F)n1 (stereo not drawn) [Compound I-36] | 0.5 nM | 1.5 nM | 5.4 h | 8.49 µg·h/mL | 1.49 µg/mL | 5.6 h |  |
| CC(C)(O)c1cc2nn(CCS(C)(=N)=O)cc2cc1NC(=O)c1cccc(C(F)(F)F)n1 (stereo not drawn) [MY-004-102, reference compound] |  | 169 nM | 1.4 h | 0.7 µg·h/mL | 0.235 µg/mL | 1.3 h | MTD at 6 days (in vivo): 750 mg/kg; IC50 (hERG potassium channel): ~50000 nM |
| COc1cc2nn(CCS(C)(=N)=O)cc2cc1NC(=O)c1cccc(C(F)(F)F)n1 (stereo not drawn) [MY-004-103, reference compound] |  | 125 nM | 1.4 h | 0.734 µg·h/mL | 0.245 µg/mL | 1.4 h |  |

Continued by falling IC50 [2], values first:

| IC50 (IRAK4 kinase) | IC50 [2] | SMILES | half-life ([1]; in vivo) | AUC(0-t) ([1]; plasma) | Cmax ([1]; plasma) | Tmax ([1]; plasma) | also measured |
| --- | --- | --- | --- | --- | --- | --- | --- |
| 0.6 nM | 0.9 nM | N=S(=O)(CCn1cc2cc(NC(=O)c3cccc(C(F)(F)F)n3)c(N3CCC(O)C3)cc2n1)c1ccncc1 (stereo not drawn) [Compound I-8] |  |  |  |  |  |
| 0.7 nM | 0.9 nM | COc1cc2nn(CCS(=N)(=O)c3ccncc3)cc2cc1NC(=O)c1coc(-c2ccnc(C)c2)n1 (stereo not drawn) [Compound I-15] | 6 h | 8.23 µg·h/mL | 1.38 µg/mL | 5.9 h |  |
| 0.8 nM | 0.9 nM | COc1cc2nn(CCS(=N)(=O)c3ccccn3)cc2cc1NC(=O)c1cccc(C(F)(F)F)n1 (stereo not drawn) [Compound I-19] |  |  |  |  |  |
| 0.5 nM | 0.8 nM | N=S(=O)(CCn1cc2cc(NC(=O)c3cccc(C(F)(F)F)n3)c(N3CCOCC3)cc2n1)c1ccnc2ccccc12 (stereo not drawn) [Compound I-11] |  |  |  |  |  |
| 0.3 nM | 0.8 nM | CC(C)(O)c1cc2nn(CCS(=N)(=O)c3ccccc3)cc2cc1NC(=O)c1cnn2cccnc12 (stereo not drawn) [Compound I-22] |  |  |  |  |  |
| 0.7 nM | 0.7 nM | COc1cc2nn(CCS(=N)(=O)c3ccccc3)cc2cc1NC(=O)c1coc(-c2ccnc(C)c2)n1 (stereo not drawn) [Compound I-28] |  |  |  |  |  |
| 0.7 nM | 0.7 nM | COc1cc2nn(CCS(=N)(=O)c3nccs3)cc2cc1NC(=O)c1cccc(C(F)(F)F)n1 (stereo not drawn) [Compound I-35] |  |  |  |  |  |
| 0.6 nM | 0.6 nM | N=S(=O)(CCn1cc2cc(NC(=O)c3cccc(C(F)(F)F)n3)c(N3CCOCC3)cc2n1)c1ccccc1 (stereo not drawn) [Compound I-3] |  |  |  |  |  |
| 0.2 nM | 0.6 nM | CC(C)(O)c1cc2nn(CCS(=N)(=O)c3ccncc3)cc2cc1NC(=O)c1cccc(C(F)(F)F)n1 (stereo not drawn) [Compound I-6] |  |  |  |  |  |
| 0.3 nM | 0.6 nM | N=S(=O)(CCn1cc2cc(NC(=O)c3cccc(C(F)(F)F)n3)c(N3CCC(O)C3)cc2n1)c1ccnc2ccccc12 (stereo not drawn) [Compound I-12] |  |  |  |  |  |
